{
  "source": "patent US11236053B2",
  "about": "“NADPH oxidase inhibitors and uses thereof” (Emory University, priority 2017, dated 2022)",
  "key": {"[1]": {"assay": "Superoxide scavenging assay (xanthine/xanthine oxidase, cytochrome C)", "type": "biochemical", "settings": "in vitro, concentrations up to 100 μM, superoxide from xanthine/xanthine oxidase", "description": "(§1) ROS scavenging by sulfonylurea compound 23, 24, or 25 was assessed in vitro. Superoxide was generated with xanthine/xanthine oxidase and measured using the cytochrome C assay. In addition, 5 μM hydrogen peroxide was added exogenously and measured using the Amplex Red™ assay. ROS were measured in the presence of indicated concentrations of each compound or DMSO solvent. Bars represent means±SEM of 4 (superoxide) or 3 (hydrogen peroxide) independent experiments. Differences between DMSO and sulfonylurea compounds are not significant.\n(§2) To assess ROS scavenging, the consumption of superoxide, generated by xanthine/xanthine oxidase, or of exogenous hydrogen peroxide, was measured by increasing concentrations of the compounds of interest.\nAn assay was developed based on the measurement of superoxide-dependent changes in cytochrome C absorbance at 550 nm. Briefly, superoxide was generated in vitro in phosphate buffered saline solution, using hypoxanthine (100 μM)/xanthine oxidase (6×10^3 U/mL) in the presence of catalase (200 U/mL) to eliminate H2O2. Compounds under study were added at various concentrations (1-100 μM) and remaining superoxide was measured with cytochrome C (46 μM). Superoxide dismutase (575 U/mL) was used as a positive control in separate samples measured at the same time. Following a 1 min stabilization period, absorbance was measured at 550 nm in a microplate reader (Biotek), using a kinetic program (1 read/min) for 15 min. The linear slope representing the rate of superoxide production was used to calculate the percentage of superoxide scavenging."}, "[2]": {"assay": "Hydrogen peroxide scavenging assay (Amplex Red)", "type": "biochemical", "settings": "in vitro, concentrations up to 100 μM, 5 μM exogenous hydrogen peroxide", "description": "as §1, §2\nHydrogen peroxide was measured in vitro, using an Amplex Red™ assay kit (Invitrogen), according to the manufacturer's instructions. This assay measures the oxidation of Amplex Red™ (10-acetyl-3,7-dihydroxyphenoxazine) to fluorescent resorufin in the presence of horseradish peroxidase. Briefly, H2O2 ([…]) was added to various concentrations (1-100 μM) of the compounds under study in reaction buffer. After an incubation of 5 min, Amplex Red™ was added to measure remaining H2O2. Reactions were incubated for 30 min at room temperature, protected from light. Resorufin fluorescence was measured in a microplate reader (Biotek) using excitation at 530 nm and emission at 590 nm."}, "[3]": {"tested_on": "Nox4-dependent signaling", "assay": "TGF-β-induced α-SMA upregulation in human aortic smooth muscle cells (Western blot)", "type": "cell-based", "settings": "HASMCs pretreated 30 min, TGF-β 24 h, Western blot normalized to β-tubulin", "description": "Human aortic smooth muscle cells in culture were incubated with indicated concentrations of compound 23, 24, or 25 and stimulated with 2 ng/ml TGF-β for 24 h to induce a Nox4-dependent upregulation of smooth muscle alpha-actin (α-SMA). Protein expression was measured by Western blotting and normalized to β-tubulin. In the absence of inhibitor, α-SMA induction by TGF-β was maximal (100%).\nCells were pretreated with a candidate inhibitor 30 min before exposure to TGF-β and harvested after 24 h. Actin expression was measured by western blotting with a specific antibody."}, "[4]": {"tested_on": "Nox4 mRNA", "assay": "Nox4 mRNA qPCR assay in TGF-β-stimulated cells", "type": "cell-based, human", "settings": "preincubation, same range of concentrations as FIG. 11, TGF-β stimulated"}, "[5]": {"tested_on": "human aortic smooth muscle cells", "assay": "Mammalian cell live/dead viability assay", "type": "cell-based", "settings": "TGF-β stimulated, n=6", "description": "To rule out a possible toxic effect of these compounds in cultured cells, cell viability was measured using a commercial mammalian cell live/dead assay. Stimulation with TGF-β alone had no effect on cell viability (99±0.61%, P=NS, n=4)."}, "[6]": {"tested_on": "hippocampal brain slices", "settings": "hippocampal brain slices treated with Nox 4 inhibitors; cited from earlier work"}},
  "data": [
    {"smiles": "COc1ccc(S(=O)(=O)N2CCCN(c3ccc(C(F)(F)F)cc3)C2=O)cc1", "note": "[Compound 23, 1-((4-Methoxyphenyl)sulfonyl)-3-(4-(trifluoromethyl)phenyl)-tetrahydropyrimidin-2(1H)-one]", "values": [
      {"measurement": "effect on superoxide (ROS scavenging)", "setting": "[1]", "value": "no effect"},
      {"measurement": "effect on hydrogen peroxide (ROS scavenging)", "setting": "[2]", "value": "no effect"},
      {"measurement": "inhibition of Nox4-dependent signaling (α-SMA expression)", "setting": "[3]", "value": "profoundly inhibiting"},
      {"measurement": "effect on Nox4 expression (Nox4 mRNA)", "setting": "[4]", "value": "did not affect"},
      {"measurement": "cell viability", "setting": "[5]; 100 μM preincubation", "value": "92±3.09", "unit": "%"}
    ]},
    {"smiles": "O=C1N(c2ccc(C(F)(F)F)cc2)CCCN1S(=O)(=O)c1ccc(F)cc1", "note": "[Compound 24, 1-((4-Fluorophenyl)sulfonyl)-3-(4-(trifluoromethyl)phenyl)-tetrahydropyrimidin-2(1H)-one]", "values": [
      {"measurement": "effect on superoxide (ROS scavenging)", "setting": "[1]", "value": "no effect"},
      {"measurement": "effect on hydrogen peroxide (ROS scavenging)", "setting": "[2]", "value": "no effect"},
      {"measurement": "inhibition of Nox4-dependent signaling (α-SMA expression)", "setting": "[3]", "value": "profoundly inhibiting"},
      {"measurement": "effect on Nox4 expression (Nox4 mRNA)", "setting": "[4]", "value": "did not affect"},
      {"measurement": "cell viability", "setting": "[5]; 100 μM preincubation", "value": "100±0.97", "unit": "%"}
    ]},
    {"smiles": "COc1ccc(S(=O)(=O)N2CCN(c3ccc(C(F)(F)F)cc3)C2=O)cc1", "note": "[Compound 25, 1-((4-Methoxyphenyl)sulfonyl)-3-(4-(trifluoromethyl)phenyl)-imidazolidin-2-one]", "values": [
      {"measurement": "effect on superoxide (ROS scavenging)", "setting": "[1]", "value": "no effect"},
      {"measurement": "effect on hydrogen peroxide (ROS scavenging)", "setting": "[2]", "value": "no effect"},
      {"measurement": "inhibition of Nox4-dependent signaling (α-SMA expression)", "setting": "[3]", "value": "profoundly inhibiting"},
      {"measurement": "effect on Nox4 expression (Nox4 mRNA)", "setting": "[4]", "value": "did not affect"},
      {"measurement": "cell viability", "setting": "[5]; 10 μM preincubation", "value": "97±2.50", "unit": "%"}
    ]},
    {"smiles": "Cc1c2c(=O)n(-c3ccccc3Cl)[nH]c2cc(=O)n1Cc1ccccn1", "note": "[GKT136901]", "values": [
      {"measurement": "cell death", "setting": "[6]", "value": "significantly reduced"}
    ]}
  ]
}
